Data as given in EP1022029A1, “NOOTROPIC AGENT” (priority 1997, dated 1999).
Like-named read-outs stand apart in the source and are kept apart here.

Legend:
[1] = test system: postsynaptic potentials evoked from the hippocampal CA1 region; experiment: Postsynaptic potentials recorded in the CA1 pyramidal cell layer of rat hippocampal slices; format: cell-based
[2] = test system: glutamate release from hippocampal slices; format: cell-based, guinea pig
[3] = target: T1, AMPA (GluR1, 2, 3) receptor (Rattus norvegicus, UniProt P19490+P19491+P19492); experiment: Kainate-evoked currents in GluR1, 2, 3 receptors expressed in Xenopus oocytes; format: cell-based; settings: nefiracetam 1 µM; kainate 100 µM; holding voltage -30 mV; n=5
T1 construct: expressed in transfected cells; host or cells: Xenopus oocytes injected with mRNA
T1 sequence (P19490 19-907): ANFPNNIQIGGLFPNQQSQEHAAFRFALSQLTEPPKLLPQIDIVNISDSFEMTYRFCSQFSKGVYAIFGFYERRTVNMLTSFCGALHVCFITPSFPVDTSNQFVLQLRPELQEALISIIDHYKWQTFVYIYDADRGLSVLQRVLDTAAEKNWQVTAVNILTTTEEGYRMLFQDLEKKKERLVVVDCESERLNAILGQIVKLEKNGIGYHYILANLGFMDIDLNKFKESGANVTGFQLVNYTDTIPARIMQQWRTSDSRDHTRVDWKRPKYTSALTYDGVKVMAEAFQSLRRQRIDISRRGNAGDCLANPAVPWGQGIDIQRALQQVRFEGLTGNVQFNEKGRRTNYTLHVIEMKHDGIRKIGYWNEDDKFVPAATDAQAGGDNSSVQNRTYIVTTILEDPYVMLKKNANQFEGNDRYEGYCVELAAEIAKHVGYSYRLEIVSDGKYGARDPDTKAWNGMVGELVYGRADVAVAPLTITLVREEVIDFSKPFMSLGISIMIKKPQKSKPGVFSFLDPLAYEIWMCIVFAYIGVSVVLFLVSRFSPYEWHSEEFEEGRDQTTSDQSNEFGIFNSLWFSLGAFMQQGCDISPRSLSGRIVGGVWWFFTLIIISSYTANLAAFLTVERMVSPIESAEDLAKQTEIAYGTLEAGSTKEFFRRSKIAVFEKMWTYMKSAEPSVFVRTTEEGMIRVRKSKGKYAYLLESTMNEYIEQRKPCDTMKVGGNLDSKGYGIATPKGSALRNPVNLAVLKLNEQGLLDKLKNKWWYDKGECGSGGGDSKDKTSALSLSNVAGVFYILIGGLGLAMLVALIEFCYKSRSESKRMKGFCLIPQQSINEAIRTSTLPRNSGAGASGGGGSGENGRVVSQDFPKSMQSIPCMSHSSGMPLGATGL
T1 sequence (P19491 22-883): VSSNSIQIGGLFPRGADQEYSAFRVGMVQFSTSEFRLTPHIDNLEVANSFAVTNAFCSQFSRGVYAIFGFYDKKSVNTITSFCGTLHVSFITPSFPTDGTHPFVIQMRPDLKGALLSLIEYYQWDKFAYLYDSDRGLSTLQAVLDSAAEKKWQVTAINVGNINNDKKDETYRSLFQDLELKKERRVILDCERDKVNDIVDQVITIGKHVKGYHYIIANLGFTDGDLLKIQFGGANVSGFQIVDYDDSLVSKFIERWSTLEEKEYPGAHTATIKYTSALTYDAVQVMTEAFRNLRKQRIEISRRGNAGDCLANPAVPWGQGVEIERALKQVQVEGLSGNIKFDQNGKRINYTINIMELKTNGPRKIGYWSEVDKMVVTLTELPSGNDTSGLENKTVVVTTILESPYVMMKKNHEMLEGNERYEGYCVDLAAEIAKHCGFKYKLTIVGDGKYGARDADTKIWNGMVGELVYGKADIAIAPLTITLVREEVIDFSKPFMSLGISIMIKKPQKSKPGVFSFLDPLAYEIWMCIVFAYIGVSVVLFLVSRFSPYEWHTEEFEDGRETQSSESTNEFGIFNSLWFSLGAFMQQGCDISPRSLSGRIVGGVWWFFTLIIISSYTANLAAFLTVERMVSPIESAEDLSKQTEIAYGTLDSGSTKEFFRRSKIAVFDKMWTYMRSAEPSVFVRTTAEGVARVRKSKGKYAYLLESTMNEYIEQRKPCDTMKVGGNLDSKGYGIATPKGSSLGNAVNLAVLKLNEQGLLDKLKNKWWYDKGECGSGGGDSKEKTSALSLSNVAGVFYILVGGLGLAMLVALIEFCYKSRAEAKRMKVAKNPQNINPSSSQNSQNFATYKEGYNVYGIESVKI
T1 sequence (P19492 23-888): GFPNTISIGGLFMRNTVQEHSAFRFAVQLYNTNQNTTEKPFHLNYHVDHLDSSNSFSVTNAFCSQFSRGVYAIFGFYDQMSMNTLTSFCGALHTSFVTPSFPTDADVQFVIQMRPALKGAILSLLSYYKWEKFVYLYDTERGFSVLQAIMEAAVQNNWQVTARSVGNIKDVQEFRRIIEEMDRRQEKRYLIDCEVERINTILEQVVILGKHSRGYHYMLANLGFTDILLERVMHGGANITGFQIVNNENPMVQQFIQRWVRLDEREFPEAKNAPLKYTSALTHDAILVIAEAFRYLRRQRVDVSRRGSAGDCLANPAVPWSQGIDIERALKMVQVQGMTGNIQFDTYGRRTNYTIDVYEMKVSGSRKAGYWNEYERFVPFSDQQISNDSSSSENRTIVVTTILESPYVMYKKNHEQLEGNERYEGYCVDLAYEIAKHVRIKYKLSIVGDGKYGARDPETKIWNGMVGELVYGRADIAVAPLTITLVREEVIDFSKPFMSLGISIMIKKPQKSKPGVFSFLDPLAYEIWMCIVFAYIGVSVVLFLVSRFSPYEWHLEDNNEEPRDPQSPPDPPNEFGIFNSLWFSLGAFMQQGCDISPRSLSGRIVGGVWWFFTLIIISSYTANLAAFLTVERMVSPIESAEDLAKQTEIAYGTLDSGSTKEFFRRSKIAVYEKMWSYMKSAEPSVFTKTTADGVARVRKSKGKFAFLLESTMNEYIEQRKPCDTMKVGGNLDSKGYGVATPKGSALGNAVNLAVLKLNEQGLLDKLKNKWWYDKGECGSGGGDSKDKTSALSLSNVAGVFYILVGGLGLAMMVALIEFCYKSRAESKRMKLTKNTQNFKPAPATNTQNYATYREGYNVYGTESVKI
Procedure: GluR 1, 2, 3 receptors which are AMPA receptors were expressed in Xenopus oocytes. Cell membrane currents evoked with kainate (100 µM) were recorded before and after administration of nefiracetam (1 µM) (n=5). […] The holding voltage was -30 mV. • (B): An oocyte expressing normal ACh receptors was loaded with Calcium Green. In Ca^2+-free (extCa^2+(-)) extracellular solution (extCa^2+(-)) and ordinary (i.e., Ca^2+-containing) extracellular solution, intracellular Ca^2+ ([Ca^2+]i) and Ach-evoked currents (IA) were recorded. The Ca^2+ rise was normalized by dividing "Δ increase of fluorescence intensity (DI)" by "base intensity (I)", and further by "current amplitude obtained with Ca^2+-free solution (2) (µA)". Indicated by "(1)" are currents obtained with Ca^2+-containing solution.
GluR1, 2, 3 receptors were expressed in Xenopus oocytes. Cell membrane currents evoked by kainate (100 µM) were recorded (n = 5) before and after treatment with nefiracetam (1 µM). The holding voltage was fixed at -30 mV.

[4] = test system: field excitatory postsynaptic potentials (fEPSP); experiment: Field excitatory postsynaptic potentials (fEPSP slope) in rat hippocampal slices, CA1; format: cell-based; settings: nefiracetam 1 µM applied for 10 minutes
Procedure: Long-lasting facilitation of hippocampal synaptic transmission induced by nefiracetam was investigated. The field excitatory postsynaptic potentials (fEPSP) were recorded in the pyramidal cell layer of the CA1 region by electrical stimulation to the Schaeffer collateral pathway in rat hippocampla slices. Nefiracetam (1 µM) was applied to the hippocampla slices for 10 minutes. After nefiracetam application, fEPSPs were gradually augmented. This effect was observed until 240 minutes had passed since the experiment ended (Table 18-2).
Next, investigation was made regarding whether the above effect exerted by the present drug differs from the onset mechanism for long-term potentiation (LTP) action exerted when tetanic stimulation was used. The following three groups were compared: (group 1) tetanic stimulation alone; (group 2) nefiracetam + tetanic stimulation; (group 3) tetanic stimulation + nefiracetam. As a result, the fEPSPs that had been potentiated by nefiracetam was not potentiated any longer even when subsequent tetanic stimulation was applied. Likewise, the fEPSPs that had been potentiated by tetanic stimulation was not potentiated any longer even after subsequent application of nefiracetam. The amplitudes of potentiation of these two types of fEPSP were the same as the amplitude of tetanic stimulation. […]

[5] = test system: excitatory postsynaptic potential in the brain; experiment: Excitatory postsynaptic potential (PS) in the brain in vivo, hippocampal granular cell layer; set-up: species or system mice
Procedure: A group of mice were provided. The head of each mouse was fixed, and electrodes were inserted into the granular cell layer of the hippocampal region. PS was recorded. Nefiracetam was intramuscularly injected (7.5 mg/kg). […] This effect was confirmed even after 960 minutes. Thus, the effect obtained in vitro was also confirmed in an in vivo experiment […].

Cc1cccc(C)c1NC(=O)CN1CCCC1=O [nefiracetam, 2-oxo-1-pyrrolidinylacetic acid 2,6-dimethylanilide]
Postsynaptic potential (% of original amplitude) ([1]; Nefiracetam 0.01 µM, GF109203X(100nM), 10 min after treatment, n=5): 50 ± 5%
Postsynaptic potential (% of original amplitude) ([1]; Nefiracetam 0.01 µM, H-89(1µM), 10 min after treatment, n=5): 103 ± 8%
Postsynaptic potential (% of original amplitude) ([1]; Nefiracetam 1 µM, GF109203X(100nM), 10 min after treatment, n=5): 108.8 ± 11.6%
Postsynaptic potential (% of original amplitude) ([1]; Nefiracetam 1 µM, H-89(1µM), 10 min after treatment, n=5): 155 ± 8%
activity at 0.01 µM ([1]; Rattus norvegicus, 10 min, Nefiracetam 0.01 µM, Control (no inhibitor), 10 min after treatment, n=5, read-out: Postsynaptic potential (% of original amplitude)): 85 ± 5%
activity at 1 µM ([1]; Rattus norvegicus, 10 min, Nefiracetam 1 µM, Control (no inhibitor), 10 min after treatment, n=5, read-out: Postsynaptic potential (% of original amplitude)): 143 ± 2%
activity at 1 µM ([1]; Rattus norvegicus, 1 h, 60 minutes after the 1 µM treatment, read-out: magnitude of maximum facilitation of the postsynaptic potentials): ~150%
activity at 0.001 µM ([1]; Rattus norvegicus, nefiracetam 0.001 µM, Mean ± SD, n = 5 to 7, read-out: Postsynaptic potential (% of original amplitude)): 95 ± 6%
activity at 0.01 µM ([1]; Rattus norvegicus, nefiracetam 0.01 µM, Mean ± SD, n = 5 to 7, read-out: Postsynaptic potential (% of original amplitude)): 94 ± 5%
activity at 0.1 µM ([1]; Rattus norvegicus, nefiracetam 0.1 µM, Mean ± SD, n = 5 to 7, read-out: Postsynaptic potential (% of original amplitude)): 111 ± 9%
activity at 1 µM ([1]; Rattus norvegicus, nefiracetam 1 µM, Mean ± SD, n = 5 to 7, read-out: Postsynaptic potential (% of original amplitude)): 156 ± 6%
activity at 10 µM ([1]; Rattus norvegicus, read-out: Postsynaptic potential (% of original amplitude), nefiracetam 10 µM, Mean ± SD, n = 5 to 7): 144 ± 11%
concentrations giving short-term suppression of the postsynaptic potentials ([1]; biphasic effect, lower concentrations): ≤ 0.1 µM
effect on glutamate release ([2]; 1 µM, depolarization by electrical stimulation): significantly increased
Amount of released glutamate ([2]; St (ES+) electrical stimulation, nefiracetam 1 µM, tetrodotoxin 0.5 µM, α-bungarotoxin 50 nM, mecamylamine 3 µM): 3.23 ± 0.5 (a) nmol/mg protein/10min.
effect on AMPA (GluR1, 2, 3) receptor currents (Fig. 1) [3]: never potentiated
time until which augmentation of fEPSPs was observed [4]: ≥ 240 min
time after which potentiation of the excitatory postsynaptic potential was still confirmed ([5]; 7.5 mg/kg intramuscularly, mice): ≥ 960 min
effect on excitatory postsynaptic potential (PS) in vivo ([5]; administered to animals): significant potentiation
